The data set has as its system UBE2Mresc KBM7 cells. The data set is described as follows: Cell viability assay, KBM7 UBE2M rescue (UBE2M cDNA re-introduced). The data set is classed as cell-based, human. Particulars: Table 1, data of FIG. 4; 3-day treatment; read-out: LC50 UBE2Mresc. As for the experimental part:
KBM7 cells with the specified genetic backgrounds were grown in IMDM supplemented with 10% FBS and 1% penicillin/streptomycin (pen/strep). AsPC1, HCT116, NCI-H446 and 293T cells were grown in DMEM 10% FBS and 1% pen/strep. MV4; 11, Jurkat and Be (2) C cells were grown in RPMI 10% FBS 1% pen/strep. KBM7, AsPC1 and HCT116 cells expressing Cas9 were generated using the plasmid Lenti_Cas9_Blasti (Addgene #52962). The lentiviral plasmid lentiGuide-Puro (Addgene #52963) was used to express sgRNAs against the genes UBE2M (in KBM7-Cas9, AsPC1-Cas9 and HCT116-Cas9 cells), UBE2G1 (in KBM7-Cas9 cells) and […] (in KBM7-Cas9 cells). The lentiviral plasmid lentiGuide-Puro-IRES-mCherry (modified from Addgene #52963) was used to express sgRNAs against CUL4A (in KBM7-Cas9 cells). The lentiviral plasmid pLenti-PGK-Hygro-DEST-UBE2M was generated by Gateway cloning (empty destination vector Addgene #19066), and used to generate UBE2M^resc KBM7 cells.
Indeed, >20 compounds were identified that fulfilled this criteria. […] The initial screening assay was conducted at two concentrations (10 μM and 500 nM). The dose ranging differential effect of these four hits was assessed/validated, comparing their activity in KBM7WT vs UBE2MMUT cells. […] A genetic rescue experiment, where UBE2M cDNA was re-introduced into the UBE2Mmut clone (UBE2Mresc), did (at least partically) reconstitute the initial sensitivity to the assessed compounds (FIG. 4, Table 1).
KBM7^WT, mutant KBM7 clones (UBE2M^mut, UBE2M^resc, UBE2G1^mut CUL4A^mut, CUL4B^mut), and 3-day doxycycline pretreated KBM7^iCas9_sgDDB1 cells were seeded at a cell density of 50,000 cells/mL in 96-well plates with DMSO or drug, in triplicates. Drugs used: IC020772.1/IC020772.1X, IC021313.2/IC021313.2X, T6938051/T6938051X or THZ531. Cells were treated for 3 days, after which cell viability was assessed according to manufacturer's protocol (CellTiter Glo, Promega G7570). Survival curves and EC50 values were calculated by best-fit analysis of the log 10 drug concentration to fold change of drug-treated cells over DMSO-treated cells. […]
In the case of `O=C(CSc1nc2ccccc2[nH]1)Nc1ccc(Cl)cn1` [IC021313.2], the CC50 worked out at 1940 nM.

With `Cc1ccc(C(=O)N2CSCC2C(=O)N=c2[nH]cc(C)s2)o1` (stereo not drawn) [Compound T6938051], the CC50 is 1150 nM.

For `O=C(CSc1nnc2c(n1)[nH]c1ccccc12)Nc1ccc(Cl)cn1` [IC020772.1], the CC50 amounted to 750 nM.

(Values after US12410152B2, “Oxazole and thioazole-type cullin ring ubiquitin ligase compounds and uses thereof” (Proxygen GmbH, priority 2019, dated 2025).)
